Experimental data reported in patent US11505521B2 (Biothea Pharma, Inc., priority 2018, dated 2022).
Read-outs that look alike come from different tables or passages of the source.

Key:
physchem = test: physchem
Description: The tests were conducted using Sartorius balances (Model SQP) and a potentiometric titrator (Brand: Methrom, Model No. 905 Titrando). 0.17 g of the sample was weighed and transferred into a 50 mL volumetric flask with the remainder of the volume comprising deonized water. The solution was mixed. The solution was titrated with a 0.1 mol/L NaOH solution using a pH indicator to indicate the end point.

[1] = water, 25° C.
Description: The sample was dissolved and diluted to the volume with water and mixed well. The sample was left in an oven at 25° C., and samples were collected at 0 hours, 24 hours, 48 hours, 72 hours, 96 hours, and 120 hours. The diluent (mobile phase) used for the study was prepared by mixing about 1.36 g of potassium dihydrogen orthophosphate and 1.74 g of dipotassium hydrogen orthophosphate in a 1000 mL volumetric flask, and adjusting the pH to 3.0 with orthophosphoric acid. The appearance and purity of the samples were tested.

[2] = Description: The procedure for the various conditions is set forth below.
Standard: 20 mg of sample was weighed and dissolved in a 50 mL volumetric flask, diluted to the required volume with diluents, and mixed well.
Acid Degradation: 20 mg of sample was weighed and placed in a 50 mL volumetric flask. 2 mL of 2.0 mol/L HCl was added to the flask. The flask was placed in a water bath at 40° C. for 7 days.
Alkaline Degradation: 20 mg of sample was weighed and placed in a 50 mL volumetric flask. 2 mL of 0.05 mol/L NaOH was added to the flask. The flask was stored at room temperature for 24 hours.
Oxidation: 20 mg of sample was weighed and placed in a 50 mL volumetric flask. 2 mL of 10% H2O2 was added to the flask. The flask was placed in a water bath at 40° C. for 44 hours.
Thermal Degradation (solution, 80° C.): 20 mg of sample was weighed and dissolved in a 50 mL volumetric flask, diluted to the required volume with diluents, and mixed well. The flask was placed in a water bath at 80° C. for 46 hours.
Thermal Degradation (solid, 80° C.): 120 mg of sample was placed in an oven at 80° C. for 7 days.
The appearance and purity of the samples were test.

[3] = no humidity
Description: The samples were prepared in a brown glass bottle with the outer packing being an aluminum foil bag, and the samples were stored between layers of dessicant silica gels. The appearance, residual material, purity, TGA, and DSC were analyzed each month.

[4] = 20 mg in 20 mL water, 25° C.
Description: The tests were conducted using Sartorius balances (Model SQP) and a pH meter (Brand: INESA, Model No. PHS-3E). 20 mg of the sample was weighed and transferred into a 20 mL volumetric flask with the remainder of the volume comprising water. The solution was mixed. The pH meter was calibrated with pH 4.0 and pH 6.8 standard buffer solutions at 25° C.

[5] = Acid Degradation: 2.0 mol/L HCl, 40° C., 7 days
[6] = Alkaline Degradation: 0.05 mol/L NaOH, room temperature, 24 hours
[7] = Oxidation: 10% H2O2, 40° C., 44 hours
[8] = Thermal Degradation (solid): 80° C., 7 days
[9] = Thermal Degradation (solution): 80° C., 46 hours

CNC[C@H](O)c1ccc(O)c(O)c1 [epinephrine bitartrate] gave a pKa (physchem; deionized water) of 4.2.
In the case of CNC[C@H](O)c1ccc(O)c(O)c1 [epinephrine malonate], the Appearance ([1]; 0 hours) is reported as “Colorless liquid”, the Purity ([1]; 0 hours) is reported as 99.97% and the Appearance ([1]; 24 hours) is reported as “Colorless liquid”. For the same molecule, the Purity ([1]; 24 hours) was 99.79%, the Appearance ([1]; 48 hours) was “Colorless liquid” and the Purity ([1]; 48 hours) was 99.63%. The Appearance ([1]; 72 hours) was “Colorless liquid”, the Purity ([1]; 72 hours) was 99.51% and the Appearance ([1]; 96 hours) was “Colorless liquid”. The Purity ([1]; 96 hours) was 99.42%, the Appearance ([1]; 120 hours) was “Colorless liquid” and the Purity ([1]; 120 hours) was 99.34%. For the same molecule, the Appearance [2, 5] was “Colorless liquid”, the Purity [2, 5] was 91.96% and the Appearance [2, 6] was “Brown liquid”. The Purity [2, 6] was 98.68%, the Appearance [2, 7] was “Colorless liquid” and the Purity [2, 7] was 97.04%. The Appearance ([2]; Standard (no degradation)) was “Off-white powder”, the Purity ([2]; Standard (no degradation)) was 99.89% and the Appearance [2, 8] was “Off-white powder”. The Purity [2, 8] was 99.10%, the Appearance [2, 9] was “Colorless liquid” and the Purity [2, 9] was 96.04%. For the same molecule, the pKa (physchem; titrated with 0.1 mol/L NaOH) was 5.47, the Appearance ([3]; 30° C., month 0) was “Off-white” and the “DSC Offset” value ([3]; 30° C., month 0) was “Offset: 104.25 °C”. The “DSC Onset” value ([3]; 30° C., month 0) was “Onset: 98.8 °C”, the Purity ([3]; 30° C., month 0) was 99.96% and the TGA ([3]; 30° C., month 0) was 0.32%. For the same molecule, the Appearance ([3]; 30° C., month 1) was “Off-white”, the “DSC Offset” value ([3]; 30° C., month 1) was “Offset: 103.99 °C” and the “DSC Onset” value ([3]; 30° C., month 1) was “Onset: 98.80 °C”. For the same molecule, the Purity ([3]; 30° C., month 1) was 99.96%, the “Residual Material (%)” value ([3]; 30° C., month 1) was 100.31% and the TGA ([3]; 30° C., month 1) was 0.60%. For the same molecule, the Appearance ([3]; 30° C., month 2) was “Off-white”, the “DSC Offset” value ([3]; 30° C., month 2) was “Offset: 104.47 °C” and the “DSC Onset” value ([3]; 30° C., month 2) was “Onset: 99.27 °C”. The Purity ([3]; 30° C., month 2) was 99.96%, the “Residual Material (%)” value ([3]; 30° C., month 2) was 99.42% and the TGA ([3]; 30° C., month 2) was 0.19%. For the same molecule, the Appearance ([3]; 30° C., month 3) was “Off-white”, the “DSC Offset” value ([3]; 30° C., month 3) was “Offset: 104.23 °C” and the “DSC Onset” value ([3]; 30° C., month 3) was “Onset: 98.72 °C”. The Purity ([3]; 30° C., month 3) was 99.96%, the “Residual Material (%)” value ([3]; 30° C., month 3) was 99.44% and the TGA ([3]; 30° C., month 3) was 0.90%. For the same molecule, the Appearance ([3]; 30° C., month 4) was “Off-white”, the “DSC Offset” value ([3]; 30° C., month 4) was “Offset: 103.62 °C” and the “DSC Onset” value ([3]; 30° C., month 4) was “Onset: 99.12 °C”. For the same molecule, the Purity ([3]; 30° C., month 4) was 99.73%, the “Residual Material (%)” value ([3]; 30° C., month 4) was 99.31% and the TGA ([3]; 30° C., month 4) was 0.69%. The Appearance ([3]; 30° C., month 5) was “Off-white”, the “DSC Offset” value ([3]; 30° C., month 5) was “Offset: 103.92 °C” and the “DSC Onset” value ([3]; 30° C., month 5) was “Onset: 98.71 °C”. The Purity ([3]; 30° C., month 5) was 99.96%, the “Residual Material (%)” value ([3]; 30° C., month 5) was 100.22% and the TGA ([3]; 30° C., month 5) was 0.51%. The Appearance ([3]; 40° C., month 0) was “Off-white”, the “DSC Offset” value ([3]; 40° C., month 0) was “Offset: 104.25 °C” and the “DSC Onset” value ([3]; 40° C., month 0) was “Onset: 98.8 °C”. The Purity ([3]; 40° C., month 0) was 99.96%, the TGA ([3]; 40° C., month 0) was 0.32% and the Appearance ([3]; 40° C., month 1) was “Off-white”. For the same molecule, the “DSC Offset” value ([3]; 40° C., month 1) was “Offset: 104.41 °C”, the “DSC Onset” value ([3]; 40° C., month 1) was “Onset: 98.89 °C” and the Purity ([3]; 40° C., month 1) was 99.97%. The “Residual Material (%)” value ([3]; 40° C., month 1) was 99.59%, the TGA ([3]; 40° C., month 1) was 0.16% and the Appearance ([3]; 40° C., month 2) was “Off-white”. For the same molecule, the “DSC Offset” value ([3]; 40° C., month 2) was “Offset: 104.05 °C”, the “DSC Onset” value ([3]; 40° C., month 2) was “Onset: 98.78 °C” and the Purity ([3]; 40° C., month 2) was 99.96%. For the same molecule, the “Residual Material (%)” value ([3]; 40° C., month 2) was 100.11%, the TGA ([3]; 40° C., month 2) was 0.13% and the Appearance ([3]; 40° C., month 3) was “Off-white”. The “DSC Offset” value ([3]; 40° C., month 3) was “Offset: 103.33 °C”, the “DSC Onset” value ([3]; 40° C., month 3) was “Onset: 98.69 °C” and the Purity ([3]; 40° C., month 3) was 99.96%. For the same molecule, the “Residual Material (%)” value ([3]; 40° C., month 3) was 98.97%, the TGA ([3]; 40° C., month 3) was 0.51% and the Appearance ([3]; 40° C., month 5) was “Off-white”. The “DSC Offset” value ([3]; 40° C., month 5) was “Offset: 103.83 °C”, the “DSC Onset” value ([3]; 40° C., month 5) was “Onset: 98.49 °C” and the Purity ([3]; 40° C., month 5) was 99.96%. The “Residual Material (%)” value ([3]; 40° C., month 5) was 99.68% and the TGA ([3]; 40° C., month 5) was 0.46%.
Molecule epinephrine maleate has a pH [4] of 4.48 and a pKa (physchem; titrated with 0.1 mol/L NaOH) of 6.12.
